The source of these data is patent publication US20030175678A1, “Methods for identifying genes regulating desired cell phenotypes” (priority 2001, published 2003).

Test [1] has as its system C. fascicularis suspension culture. As to the kind of experiment: Differential induction of EGCG in Crassula fascicularis suspension culture (HPLC). The test is classed as cell-based. The following applies: B49 medium, treated on day 7 following subculture. The method, then: Differential induction of catechins in the C. fascicularis suspension culture was performed in 500 mL conical flasks containing 190 mL of either growth medium B105 (modified Gamborg's B5 medium containing 2,4-D (1 mg/L), kinetin (0.1 mg/L), coconut water (100 mL/L), glutamine (10 mM), and 3% sucrose) or a secondary metabolite production medium B49 (Gamborg's B5, 5% sucrose, no hormones), inoculated with 70 mL of 14 day old suspension culture. Cultures were grown for 14 days before harvest and processing. Further cultures grown on production medium B49 were treated using one of each of the following protocols:
(4) A 40 mL aliquot of a day 0 suspension growing on B105 medium was transferred to a 100 mL flask. On day 3, a sterile solution of 5-azacytidine (5-AC) in water was added for a final concentration of 3×10^−5 M, and the resultant mixture was incubated for 11 days. At this point the 40 mL 5-AC-treated culture was subcultured twice before inoculating 190 mL B49 production medium in a 500 mL flask with 70 mL of day 14 suspension. The culture was then treated further according to protocol (2). […]
Lyophilized biomass from 100 mL plant cell culture was extracted three times with 10 mL of boiling aqueous 0.2 M NaH2PO4 solution (total 30 mL). The combined, cooled, extracts were extracted with EtOAc (2×30 mL). The combined EtOAc extracts were then dried under a stream of nitrogen. The samples were dissolved in 50% aqueous acetonitrile at a concentration of 1.0 mg/mL; a 0.1 mL aliquot was transferred into a 0.25 mL glass insert to a 2 mL HPLC vial. The extraction procedure is scalable according to the initial volume of the plant-cell culture used to generate the biomass.
HPLC analyses of compounds in plant cell culture extracts were performed in two systems. System 1 (S1) utilized a Rainin Dynamax SD-200 pumping system, a Varian Dynamax PDA-2 diode array detector, with a Waters XTerra RP 18 (5 μm, 3.0×150 mm) column. The mobile phase was composed from 0.1% acetic acid in H2O (solvent A) and 0.1% acetic acid in acetonitrile (solvent B), at a flow rate of 0.75 mL/min: after maintaining initial conditions (A:B, 95:5) for one minute post-injection, gradient elution was accomplished in a linear fashion over 30 min (to A:B, 40:60). A total of 10 μL of each sample was injected onto the column and eluates were analyzed at a wavelength of 275 nm. System 2 (S2) utilized API-electrospray-LC-MS: a Hewlett Packard series HP1100 with a Waters Xterra RP18 (3.5 μm, 2.1×100 mm) column was used as the inlet for a Micromass Platform-LC, in the positive-ion mode. […] Compounds of interest were detected at 254 nm and as single-charged species via selected-ion monitoring in the mass spectrometer. […]

In test [2] the test system is PAL, CHS, and F3-OH. Briefly: Quantitative RT-PCR of PAL, CHS and F3-OH transcripts in C. barkleyi cells. The test is classed as cell-based, Crassula barkleyi. The following applies: after 24 hours of treatment, relative to TBP. As for the experimental part:
(§1) Differential induction of mRNA transcripts associated with the synthesis of catechin derivatives in the C. barkleyi suspension culture (as described in Example 2) and the C. dejecta suspension culture (as described in Example 3) were performed in 250 mL conical flasks containing 100 mL of a secondary metabolite production medium B49 (Gamborg's B5, 5% sucrose, no hormones), inoculated with 16 mL of a 14 day old suspension culture (C. barkleyi) or 40 mL of a 21 day old suspension culture (C. dejecta). The cultures were incubated under low light conditions (approximately 30 lux) at 25° C.
(§2) Induction of mRNA usually occurs within 48 hours of receipt of an inducing signal. Accordingly, samples were taken at intervals of 2, 4, 6, 10, 15, 24, and 48 hours following the above treatments. Samples, sufficient to give at least 1 mL packed cell volume, were centrifuged for five minutes at 4000 rpm and the supernatant removed. […]
(§3) This mixture was incubated at 42° C. for 50 min then denatured at 70° C. for 15 min and stored at −20° C., after a thirty-fold dilution with distilled water. An aliquot of this reaction was then used to quantify the relative abundance of each of the three genes (PAL, CHS, F3-OH) to the invariant one (TBP), using a real time quantification PCR machine (Perkin Elmer 7700) and the previously described oligonucleotides (shown in FIG. 7) in the following conditions: […]

For test [3], the system named is PAL, CHS, and F3-OH. As to the kind of experiment: Quantitative RT-PCR of PAL, CHS and F3-OH transcripts in C. dejecta cells. The test is classed as cell-based, Crassula dejecta. The following applies: after 48 hours. As for the experimental part: as §1, §2, §3

In the case of `CC/C=C\CC1C(=O)CCC1CC(=O)OC` (stereo not drawn) [methyl jasmonate], in test [1], the “EGCG (mg/gdwt) two days after treatment” value was found to be 67 mg/gdwt. Also, the “induction of transcription of PAL, CHS, and F3-OH” value in test [2] was “at least twenty fold”. Moreover, in test [3], the “induction of PAL, CHS, and F3-OH genes” value is “at least 6 fold”.
